Experimental data reported in paper PMC12464775, “Selective and Potent Peptide Binders of RNF43 for Wnt Signaling Inhibition” (ACS Central Science, 2025).
Bridge positions count the residues as written; N and C are the ends. Peptide text beside a SMILES is read from it. * marks the point of attachment. Biotin = O=C1N[C@H]2[C@H](CS[C@H]2CCCCC(=O)*)N1

Experiments:
ZNRF3 = test: SPR binding to ZNRF3 (specificity); conditions: for binding to ZNRF3: protein immobilized, untagged DCP injected
Description: (§1) SPR measurement was carried out using a Biacore S200 (Cytiva) instrument, with PBS-T (PBS with 0.05% Tween 20, pH 7.4) as the buffer. Biotinylated protein was captured on three sensor channels of Series S SA Sensors (Cytiva). The sensors were then blocked with 0.1 mg/mL biotin. DCPs were injected onto the sensor in a 3× concentration series. The data were double-referenced by subtracting the signal from a sensor channel coated with biotin only and the signal from a buffer injection. For data analysis, binding data were fitted using the manufacturer’s software. ,

human RNF43 = target: T1, human RNF43 (Homo sapiens, UniProt Q68DV7); test: SPR binding of DCPs to immobilized human RNF43 ECD; conditions: SPR KD; each round of affinity maturation versus its parent DCP
T1 construct: ECD of the human RNF43 protein was incubated with EZ-link-NHS-PEG4-biotin; biotin (chemical label, NHS-PEG4-biotin on amines, 1-2 per protein)
T1 sequence (Q68DV7 24-197 limits assumed): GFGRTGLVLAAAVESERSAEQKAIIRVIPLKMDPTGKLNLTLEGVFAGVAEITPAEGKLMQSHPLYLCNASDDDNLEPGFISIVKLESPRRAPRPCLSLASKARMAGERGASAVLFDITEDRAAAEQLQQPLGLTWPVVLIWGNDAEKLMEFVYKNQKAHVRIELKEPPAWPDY
Description: ECD of the human RNF43 protein was incubated with EZ-link-NHS-PEG4-biotin (Thermo Fisher, 1:1, 50 μM) for 1 h at room temperature (RT). The reaction was quenched by addition of 10 mM Glycine, followed by dialysis into phosphate buffered saline (PBS) overnight at 4 °C. Finally, the biotinylated protein was analyzed using LC-MS to ensure that each protein is labeled with 1–2 biotin molecules. ,
as §1

SMILES | binding to ZNRF3 (ZNRF3) | improvement in affinity for RNF43 over the previous generation (human RNF43) | other results
CC[C@H](C)[C@H](NC(=O)[C@@H]1CSSC[C@H](NC(=O)[C@H](CCC(N)=O)NC(=O)[C@H](CO)NC(=O)[C@H](Cc2ccc(O)cc2)NC(=O)[C@H](CCCCN)NC(=O)[C@H](Cc2ccccc2)NC(=O)[C@H](CC(N)=O)NC(=O)[C@@H]2CSSC[C@H](NC(=O)[C@H](CCC(N)=O)NC(=O)[C@@H](N)CCC(=O)O)C(=O)N[C@@H](CC(=O)O)C(=O)N[C@@H](CCC(N)=O)C(=O)N[C@@H]([C@@H](C)O)C(=O)N[C@@H](CC(N)=O)C(=O)N[C@@H](CC(C)C)C(=O)N[C@@H](Cc3ccccc3)C(=O)N2)C(=O)N[C@H]2CSSC[C@H](NC(=O)[C@H](CC(=O)O)NC(=O)[C@H](CC(C)C)NC(=O)[C@@H]3CCCN3C(=O)[C@H](Cc3c[nH]c4ccccc34)NC2=O)C(=O)N[C@@H](CCCNC(=N)N)C(=O)N[C@@H](Cc2c[nH]c3ccccc23)C(=O)N[C@@H](C)C(=O)N[C@@H](C(C)C)C(=O)N[C@@H](CCCCN)C(=O)N[C@@H](Cc2ccc(O)cc2)C(=O)N[C@@H](CCC(N)=O)C(=O)N[C@@H](Cc2c[nH]c3ccccc23)C(=O)N[C@@H](Cc2ccccc2)C(=O)N[C@@H](Cc2c[nH]c3ccccc23)C(=O)N[C@@H](CC(=O)O)C(=O)N1)C(=O)NCC(=O)O [GUR-1.6.12.4] (H-EQCDQTNLFCNFKYSQCCWPLDCRWAVKYQWFWDCIG-OH; disulfide 3-10, 17-35, 18-23) | lack of binding | – | –
CC[C@H](C)[C@H](NC(=O)[C@@H]1CSSC[C@H](NC(=O)[C@H](CCC(N)=O)NC(=O)[C@@H](NC(=O)[C@H](Cc2ccc(O)cc2)NC(=O)[C@@H](NC(=O)[C@H](CC(C)C)NC(=O)CNC(=O)[C@@H]2CSSC[C@H](NC(=O)[C@H](CCC(N)=O)NC(=O)[C@@H](N)CCC(=O)O)C(=O)N[C@@H](CC(=O)O)C(=O)N[C@@H](CCC(N)=O)C(=O)N[C@@H](CC(=O)O)C(=O)N[C@@H](C)C(=O)N[C@@H](CO)C(=O)N[C@@H](C)C(=O)N2)[C@@H](C)CC)[C@@H](C)O)C(=O)N[C@H]2CSSC[C@H](NC(=O)[C@H](CC(=O)O)NC(=O)[C@H](CC(C)C)NC(=O)[C@@H]3CCCN3C(=O)[C@H](Cc3c[nH]c4ccccc34)NC2=O)C(=O)N[C@@H](CCCNC(=N)N)C(=O)N[C@@H](Cc2c[nH]c3ccccc23)C(=O)N[C@@H](C)C(=O)N[C@@H](C(C)C)C(=O)N[C@@H](CCCCN)C(=O)N[C@@H](Cc2ccc(O)cc2)C(=O)N[C@@H](CCC(N)=O)C(=O)N[C@@H](Cc2c[nH]c3ccccc23)C(=O)N[C@@H](Cc2ccccc2)C(=O)N[C@@H](Cc2c[nH]c3ccccc23)C(=O)N[C@@H](CC(=O)O)C(=O)N1)C(=O)NCC(=O)O [GUR-1.6.12.12] (H-EQCDQDASACGLIYTQCCWPLDCRWAVKYQWFWDCIG-OH; disulfide 3-10, 17-35, 18-23) | lack of binding | – | –
CC[C@H](C)[C@H](NC(=O)[C@@H]1CSSC[C@H](NC(=O)[C@H](CO)NC(=O)[C@H](Cc2c[nH]cn2)NC(=O)[C@@H](NC(=O)[C@@H]2CCCN2C(=O)[C@H](CCC(N)=O)NC(=O)[C@@H](NC(=O)[C@@H]2CSSC[C@H](NC(=O)[C@H](CCC(N)=O)NC(=O)[C@@H](N)CCC(=O)O)C(=O)N[C@@H](CCCNC(=N)N)C(=O)N[C@@H](CCC(=O)O)C(=O)N[C@@H](Cc3c[nH]cn3)C(=O)N[C@@H](Cc3ccccc3)C(=O)N[C@@H](Cc3c[nH]cn3)C(=O)N[C@@H](CC(=O)O)C(=O)N2)C(C)C)[C@@H](C)CC)C(=O)N[C@H]2CSSC[C@H](NC(=O)[C@H](CC(=O)O)NC(=O)[C@H](CC(C)C)NC(=O)[C@@H]3CCCN3C(=O)[C@H](Cc3c[nH]c4ccccc34)NC2=O)C(=O)N[C@@H](CCCNC(=N)N)C(=O)N[C@@H](Cc2c[nH]c3ccccc23)C(=O)N[C@@H](C)C(=O)N[C@@H](C(C)C)C(=O)N[C@@H](CCCCN)C(=O)N[C@@H](Cc2ccc(O)cc2)C(=O)N[C@@H](CCC(N)=O)C(=O)N[C@@H](Cc2c[nH]c3ccccc23)C(=O)N[C@@H](Cc2ccccc2)C(=O)N[C@@H](Cc2c[nH]c3ccccc23)C(=O)N[C@@H](CC(=O)O)C(=O)N1)C(=O)NCC(=O)O [GUR-1.6.12.16] (H-EQCREHFHDCVQPIHSCCWPLDCRWAVKYQWFWDCIG-OH; disulfide 3-10, 17-35, 18-23) | lack of binding | – | –
CC[C@H](C)[C@H](NC(=O)[C@@H]1CSSC[C@@H]2NC(=O)[C@H](CC(=O)O)NC(=O)[C@H](CC(C)C)NC(=O)[C@H](Cc3ccc(O)cc3)NC(=O)[C@H](Cc3ccc(O)cc3)NC(=O)[C@@H]3CCCN3C(=O)[C@H]([C@@H](C)CC)NC(=O)[C@@H]3CSSC[C@H](NC(=O)[C@H](CC(=O)O)NC(=O)[C@H](CC(C)C)NC(=O)[C@@H]4CCCN4C(=O)[C@H](Cc4c[nH]c5ccccc45)NC(=O)[C@H](CSSC[C@H](NC(=O)[C@@H](N)CCC(N)=O)C(=O)N[C@@H](C(C)C)C(=O)N[C@@H](CCCCN)C(=O)N[C@@H](CCCCN)C(=O)N[C@@H](CC(=O)O)C(=O)N[C@@H](CCC(=O)O)C(=O)N[C@@H](CC(C)C)C(=O)N3)NC2=O)C(=O)N[C@@H](CCCNC(=N)N)C(=O)N[C@@H](Cc2c[nH]c3ccccc23)C(=O)N[C@@H](C)C(=O)N[C@@H](C(C)C)C(=O)N[C@@H](CCCCN)C(=O)N[C@@H](Cc2ccc(O)cc2)C(=O)N[C@@H](CCC(N)=O)C(=O)N[C@@H](Cc2c[nH]c3ccccc23)C(=O)N[C@@H](Cc2ccccc2)C(=O)N[C@@H](Cc2c[nH]c3ccccc23)C(=O)N[C@@H](CC(=O)O)C(=O)N1)C(=O)NCC(=O)O [GUR-1.6.12] (H-QCVKKDELCIPYYLDCCWPLDCRWAVKYQWFWDCIG-OH; disulfide 2-17, 9-22, 16-34; N-terminus assumed) | – | slightly improved | –
CC[C@H](C)[C@H](NC(=O)[C@@H]1CSSC[C@@H]2NC(=O)[C@H](CC(=O)O)NC(=O)[C@H](CC(C)C)NC(=O)[C@H](Cc3ccc(O)cc3)NC(=O)[C@H](Cc3ccc(O)cc3)NC(=O)[C@@H]3CCCN3C(=O)[C@H]([C@@H](C)CC)NC(=O)[C@@H]3CSSC[C@H](NC(=O)[C@H](CCC(=O)O)NC(=O)[C@H](CC(C)C)NC(=O)[C@@H]4CCCN4C(=O)[C@H](CCC(=O)O)NC(=O)[C@H](CSSC[C@H](NC(=O)[C@@H](N)CCC(N)=O)C(=O)N[C@@H](C(C)C)C(=O)N[C@@H](CCCCN)C(=O)N[C@@H](CCCCN)C(=O)N[C@@H](CC(=O)O)C(=O)N[C@@H](CCC(=O)O)C(=O)N[C@@H](CC(C)C)C(=O)N3)NC2=O)C(=O)N[C@@H](CCCNC(=N)N)C(=O)N[C@@H](Cc2c[nH]c3ccccc23)C(=O)N[C@@H](C)C(=O)N[C@@H](C(C)C)C(=O)N[C@@H](CCCCN)C(=O)N[C@@H](Cc2ccc(O)cc2)C(=O)N[C@@H](CCC(N)=O)C(=O)N[C@@H](Cc2c[nH]c3ccccc23)C(=O)N[C@@H](Cc2ccccc2)C(=O)N[C@@H](Cc2c[nH]c3ccccc23)C(=O)N[C@@H](CC(=O)O)C(=O)N1)C(=O)NCC(=O)O [GUR-1.6] (H-QCVKKDELCIPYYLDCCEPLECRWAVKYQWFWDCIG-OH; disulfide 2-17, 9-22, 16-34; N-terminus assumed) | – | 10 fold | –
CC[C@H](C)[C@H](NC(=O)[C@@H]1CSSC[C@H](NC(=O)[C@@H](NC(=O)[C@H](Cc2c[nH]cn2)NC(=O)[C@H](CO)NC(=O)[C@H](Cc2ccc(O)cc2)NC(=O)[C@H](CC(=O)O)NC(=O)[C@H](Cc2c[nH]cn2)NC(=O)[C@@H]2CSSC[C@H](NC(=O)[C@H](CCC(N)=O)NC(=O)[C@H](CCC(=O)O)NC(=O)CCCC[C@@H]3SC[C@@H]4NC(=O)N[C@@H]43)C(=O)N[C@@H]([C@@H](C)O)C(=O)N[C@@H](CO)C(=O)N[C@@H]([C@@H](C)O)C(=O)N[C@@H](CCC(N)=O)C(=O)N[C@@H](CC(=O)O)C(=O)N[C@@H](CC(C)C)C(=O)N2)C(C)C)C(=O)N[C@H]2CSSC[C@H](NC(=O)[C@H](CC(=O)O)NC(=O)[C@H](CC(C)C)NC(=O)[C@@H]3CCCN3C(=O)[C@H](Cc3c[nH]c4ccccc34)NC2=O)C(=O)N[C@@H](CCCNC(=N)N)C(=O)N[C@@H](Cc2c[nH]c3ccccc23)C(=O)N[C@@H](C)C(=O)N[C@@H](C(C)C)C(=O)N[C@@H](CCCCN)C(=O)N[C@@H](Cc2ccc(O)cc2)C(=O)N[C@@H](CCC(N)=O)C(=O)N[C@@H](Cc2c[nH]c3ccccc23)C(=O)N[C@@H](Cc2ccccc2)C(=O)N[C@@H](Cc2c[nH]c3ccccc23)C(=O)N[C@@H](CC(=O)O)C(=O)N1)C(=O)NCC(=O)O [bio-GUR-1.6.12.2] (Biotin-EQCTSTQDLCHDYSHVCCWPLDCRWAVKYQWFWDCIG-OH; disulfide 3-10, 17-35, 18-23) | – | – | binding to ZNRF3, peptide immobilized (ZNRF3; bio-GUR-1.6.12.2 on streptavidin sensor): without binding to ZNRF3
